In brackets after ≈: the same amount, converted by molar mass. Where a SMILES comes first, the peptide text is derived from it. Bridges are numbered along the chain shown (N, C = ends). [ ]: non-standard residue; d: D form. The star is where a group is joined. X1 = CC[C@H](C)CCCCC(=O)*; Dab = NCC[C@H](N)C(=O)O
Key:
Aspergillus niger = experiment: Antifungal activity against Aspergillus niger ATCC 20057 assessed as reduction in fungal growth incubated overnight by broth dilution method; assay type: functional
Candida albicans = experiment: Antifungal activity against Candida albicans ATCC 10231 assessed as reduction in fungal growth incubated overnight by broth dilution method; assay type: functional
[1] = Cytotoxicity against human HEp-2 cells assessed as reduction in cell viability incubated for 40 to 60 mins by resazurin dye based assay; conditions: time 40-60 min
[2] = Hemolytic activity in human RBC at 0.25 mg/ml measured after 1 hr; assay type: ADME, tissue-based; conditions: erythrocyte
[3] = Protein binding in human plasma assessed as free fraction at 0.5 mg/ml measured after 48 hrs by RP-HPLC analysis relative to control; assay type: ADME, cell-free
[4] = Protein binding in human plasma assessed as unbound fraction at 0.5 mg/ml measured after 48 hrs by RP-HPLC analysis (Rvb= 0.211 mg/ml); assay type: ADME, cell-free
[5] = Protein binding in human plasma assessed as unbound fraction at 0.1 mg/ml measured after 24 hrs by RP-HPLC analysis (Rvb= 0.069 mg/ml); assay type: ADME, cell-free
[6] = Protein binding in human plasma assessed as unbound fraction at 0.1 mg/ml measured after 48 hrs by RP-HPLC analysis (Rvb= 0.069 mg/ml); assay type: ADME, cell-free
[7] = Protein binding in human plasma assessed as free fraction at 0.25 mg/ml measured after 48 hrs by RP-HPLC analysis relative to control; assay type: ADME, cell-free
[8] = Hemolytic activity in human RBC at 0.5 mg/ml measured after 1 hr relative to control; assay type: ADME, tissue-based, Erythrocyte; conditions: red blood cells, read-out: Activity
[9] = Stability of compound in human plasma assessed as retention time at 0.5 mg/ml measured after 48 hrs by HPLC analysis; assay type: ADME, cell-free
[10] = Protein binding in human plasma assessed as unbound fraction at 0.05 mg/ml measured after 24 hrs by RP-HPLC analysis (Rvb= 0.014 mg/ml); assay type: ADME, cell-free
[11] = Protein binding in human plasma at 0.5 mg/ml measured after 24 hrs by RP-HPLC analysis relative to control; assay type: ADME, cell-free; conditions: read-out: PPB (converted)
[12] = Protein binding in human plasma at 0.25 mg/ml measured after 24 hrs by RP-HPLC analysis relative to control; assay type: ADME, cell-free; conditions: read-out: PPB (converted)
[13] = Protein binding in human plasma assessed as free fraction at 0.1 mg/ml measured after 48 hrs by RP-HPLC analysis relative to control; assay type: ADME, cell-free
[14] = Protein binding in human plasma assessed as unbound fraction at 0.5 mg/ml measured after 24 hrs by RP-HPLC analysis (Rvb= 0.211 mg/ml); assay type: ADME, cell-free
[15] = Aqueous solubility of compound at up to 100 mg/ml; assay type: physicochemical; conditions: buffer
[16] = Stability of compound in human plasma assessed as retention time at 0.5 mg/ml measured after 6 hrs by HPLC analysis; assay type: ADME, cell-free
[17] = Protein binding in human plasma assessed as unbound fraction at 0.25 mg/ml measured after 24 hrs by RP-HPLC analysis (Rvb= 0.147 mg/ml); assay type: ADME, cell-free
[18] = Protein binding in human plasma assessed as unbound fraction at 0.25 mg/ml measured after 48 hrs by RP-HPLC analysis (Rvb= 0.147 mg/ml); assay type: ADME, cell-free

Clc1ccc(COC(Cn2ccnc2)c2ccc(Cl)cc2Cl)cc1 (configuration not stated) [ECONAZOLE]
MIC (Aspergillus niger): > 35 µg/mL
MIC (Candida albicans): > 35 µg/mL

C[C@@H]1[C@H](O)[C@@H](C)/C=C/C=C/C=C/C=C/C=C/C=C/C=C/[C@H](O[C@@H]2O[C@H](C)[C@@H](O)[C@H](N)[C@@H]2O)C[C@@H]2O[C@](O)(C[C@@H](O)C[C@@H](O)[C@H](O)CC[C@@H](O)C[C@@H](O)CC(=O)O[C@H]1C)C[C@H](O)[C@H]2C(=O)O [AMPHOTERICIN B]
MIC (Aspergillus niger): 31.5 µg/mL (≈ 34.1 µM)
MIC (Candida albicans): 5 µg/mL (≈ 5.41 µM)
CC50 [1]: 87 µg/mL (≈ 94.1 µM)

NYSTATIN [listing 1 of 2 here]
MIC (Aspergillus niger): 22.5 µg/mL
MIC (Candida albicans): 10 µg/mL

NYSTATIN [listing 2 of 2 here]
Activity [2]: Toxic

CC(=O)O.C[C@@H]1[C@H](O)[C@@H](C)/C=C/C=C/CC/C=C/C=C/C=C/C=C/[C@H](O[C@@H]2O[C@H](C)[C@@H](O)[C@H](N)[C@@H]2O)C[C@@H]2O[C@](O)(C[C@@H](O)[C@H](O)CC[C@@H](O)C[C@@H](O)C[C@@H](O)CC(=O)O[C@H]1C)C[C@H](O)[C@H]2C(=O)NCCO
fraction unbound at 48 h, 0.5 mg/ml [3]: 0.274
Cp(f) [4]: 137 µg/mL
MIC (Aspergillus niger): 23.6 µg/mL
MIC (Candida albicans): 5 µg/mL
Cp(f) [5]: 42 µg/mL
Cp(f) [6]: 30 µg/mL
fraction unbound at 48 h, 0.25 mg/ml [7]: 0.4
hemolysis at 1 h, 0.5 mg/ml [8]: 62%
Retention_time [9]: 6.5 min
Cp(f) [10]: 13 µg/mL
CC50 [1]: 149 µg/mL
fraction unbound at 24 h, 0.5 mg/ml [11]: 0.34
fraction unbound at 24 h, 0.25 mg/ml [12]: 0.48
fraction unbound at 48 h, 0.1 mg/ml [13]: 0.3
Cp(f) [14]: 168 µg/mL
solubility [15]: Soluble
Retention_time [16]: 9.4 min
Cp(f) [17]: 120 µg/mL
Cp(f) [18]: 100 µg/mL
Activity [2]: Non-Toxic

CC(=O)O.COC(=O)[C@H]1[C@@H]2C[C@@H](O[C@@H]3O[C@H](C)[C@@H](O)[C@H](N)[C@@H]3O)/C=C/C=C/C=C/C=C/CC/C=C/C=C/[C@H](C)[C@@H](O)[C@@H](C)[C@H](C)OC(=O)C[C@H](O)C[C@H](O)C[C@H](O)CC[C@@H](O)[C@H](O)C[C@](O)(C[C@@H]1O)O2
MIC (Aspergillus niger): > 35 µg/mL
MIC (Candida albicans): 30 µg/mL

CC[C@H](C)CCCCC(=O)N[C@@H](CCN)C(=O)N[C@H](C(=O)N[C@@H](CCN)C(=O)N[C@H]1CCNC(=O)[C@H]([C@@H](C)O)NC(=O)[C@H](CCN)NC(=O)[C@H](CCN)NC(=O)[C@H](CC(C)C)NC(=O)[C@@H](Cc2ccccc2)NC(=O)[C@H](CCN)NC1=O)[C@@H](C)O (X1-[Dab]T[Dab][Dab][Dab][dF]L[Dab][Dab]T; lactam 4-C)
MIC (Aspergillus niger): > 35 µg/mL
MIC (Candida albicans): > 35 µg/mL

— ChEMBL document CHEMBL5029198, “Water-Soluble Nystatin and Derivative” (ACS Med Chem Lett, 2022)
